Measurements taken from article PMC6020753 (Chemical Science, 2016).

Molecular target: T1, NP1 (Rhodnius prolixus, UniProt Q26239)
T1 construct: recombinant in E. coli BL21(DE3), reconstituted ferriheme b protein, two Cys-Cys disulfides
Experiment: X-band EPR of nitrite complex
Assay type: binding
Conditions: 300 mM NaNO2, 100 mM HEPES pH 7.2, 25% glycerol, 10 K; heme iron ligand

T1 sequence (Q26239 24-207): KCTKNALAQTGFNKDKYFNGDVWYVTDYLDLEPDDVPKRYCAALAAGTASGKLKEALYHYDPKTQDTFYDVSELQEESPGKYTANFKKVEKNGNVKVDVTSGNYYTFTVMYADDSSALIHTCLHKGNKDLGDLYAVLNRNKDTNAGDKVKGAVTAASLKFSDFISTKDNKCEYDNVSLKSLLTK

Compound: O=NO [nitrite]
- X-band EPR of nitrite complex: NP1[NO2^–] also has a HALS signal with a similar ratio
